According to US20250304645A1, “Prodrugs of GLP-1 Polypeptide and Uses Thereof” (Novo Nordisk A/S, priority 2022, published 2025):

Experiment: Prodrug to drug conversion half-life in vitro in PBS at pH 7.4 and 37° C. (UPLC-UV-MS)
Type: physicochemical
Conditions: prodrug to parent drug conversion, PBS pH 7.4, 37° C., first order T½
Procedure: The assay was performed to investigate the conversion half-life of prodrug to drug of the prodrugs of the invention.
Peptide stock solutions were prepared by dissolving freeze-dried powder in PBS buffer to a target of 200 μM. PBS-buffer was Dulbecco's Phosphate Buffered Saline without CaCl2 and MgCl2, gibco 14190-094 adjusted to pH=7.4. The pH of the peptide stock solutions was adjusted to 7.4 with 0.02 M HCl or 0.02M NaOH. Samples were filled in Agilent HPLC vials with fixed insert. Vials were capped to prevent evaporation. The HPLC vials were incubated at 37° C. and samples were withdrawn at different time points over a period of 2 weeks, flash frozen at −80° C., and stored at −20° C. until analysis.
Sample analysis was carried out using UPLC coupled to UV detection at 215 nm and MS (UPLC-UV-MS). One μl of sample was injected on to a Waters Acquity UPLC with a flow-through-needle injection system and on to a Waters Acquity CSH C18 column (1*150 mm), with a particle size of 1.7 μm and held at 55° C. A flow-rate of 100 μl/min was delivered with a Binary solvent manager pump having 0.1% formic acid in water as solvent A and 0.1% formic acid in acetonitrile as solvent B. Gradient elution was carried out using 15-32% B from 0 to 4 min followed by 32 to 48% B from 4 to 54 min. […]

Molecule | half-life (buffer) [h] | Conversion half-life [h]
CC[C@H](C)[C@H](NC(=O)[C@H](Cc1ccccc1)NC(=O)[C@H](CCC(=O)O)NC(=O)[C@H](CCCCNC(=O)COCCOCCNC(=O)COCCOCCNC(=O)CC[C@H](NC(=O)CCCCCCCCCCCCCCCCC(=O)O)C(=O)O)NC(=O)[C@H](C)NC(=O)[C@H](C)NC(=O)[C@H](CCC(N)=O)NC(=O)CNC(=O)[C@H](CCC(=O)O)NC(=O)[C@H](CC(C)C)NC(=O)[C@H](Cc1ccc(O)cc1)NC(=O)[C@H](CO)NC(=O)[C@H](CO)NC(=O)[C@@H](NC(=O)[C@H](CC(=O)O)NC(=O)[C@H](CO)NC(=O)[C@@H](NC(=O)[C@H](Cc1ccccc1)NC(=O)[C@@H](NC(=O)CNC(=O)[C@H](CCC(=O)O)NC(=O)C(C)(C)NC(=O)[C@H](Cc1c[nH]cn1)NC(=O)[C@@H]1CSCN1C(=O)[C@@H](N)CCCCNC(=O)COCCOCCNC(=O)COCCOCCNC(=O)CC[C@H](NC(=O)CCCCCCCCCOc1cccc(C(=O)O)c1)C(=O)O)[C@@H](C)O)[C@@H](C)O)C(C)C)C(=O)N[C@@H](C)C(=O)N[C@@H](Cc1c[nH]c2ccccc12)C(=O)N[C@@H](CC(C)C)C(=O)N[C@H](C(=O)N[C@@H](CCCNC(=N)N)C(=O)NCC(=O)N[C@@H](CCCNC(=N)N)C(=O)NCC(=O)O)C(C)C [Chem. 8, N{ε26}-[2-[2-[2-[[2-[2-[2-[[(4S)-4-carboxy-4-(17-carboxyheptadeca-noylamino)butanoyl]amino]ethoxy]ethoxy]acetyl]amino]ethoxy]ethoxy]acetyl]-N{ε}-[2-[2-[2-[[2-[2-[2-[[(4S)-4-carboxy-4-[10-(3-carboxyphenoxy)decanoylamino]butanoyl]amino]ethoxy]ethoxy]acetyl]amino]ethoxy]ethoxy]acetyl]Lys-Thz-[Aib8,Arg34]-GLP-1-(7-37)-peptide] | 175 | –
N{ε26}-[2-[2-[2-[[2-[2-[2-[[(4S)-4-carboxy-4-(17-carboxyheptadeca-noylamino)butanoyl]amino]ethoxy]ethoxy]acetyl]amino]ethoxy]ethoxy]acetyl]-N{ε}-[(2S)-2-[[(4S)-4-carboxy-4-(17-carboxyheptadecanoylamino)butanoyl]amino]-3-hydroxypropanoyl]Lys-Thz-[Aib8,Arg34]-GLP-1-(7-37)-peptide [Chem. 18] | – | 168
